Earlier results, collected in patent publication US20070281995A1, “Creatine analog prodrugs, compositions and uses thereof” (XenoPort, Inc., priority 2006, published 2007).
Like-named read-outs stand apart in the source and are kept apart here.

Tests used:
[1] = healthy volunteers, oral creatine administration
[2] = not given; remark: listed apart in the source
[3] = animals fed a diet containing up to 1%

Compound: CN(CC(=O)O)C(=N)N [creatine, Creatine]
- overall increase in creatine phosphate levels (creatine supplementation, typically takes weeks): < 50%
- duration of increases in tissue creatine phosphate levels (following oral creatine supplementation): > 14 days
- increase of cerebral creatine phosphate [1]: about 10%

Compound: CN(CC(=O)O)C(=N)NP(=O)(O)O [creatine phosphate]
- adverse side effects ([2]; patients with cardiac diseases, intravenous injection up to 8 gm/day): without adverse side effects

Compound: NC1=NCCN1CC(=O)O [cyclocreatine]
- adverse effects [3]: do not exhibit adverse effects

Compound: CN(CC(=O)O)C(=N)N.O [creatine monohydrate]
- adverse side effects ([2]; athletes and body builders, 2-3 gm/day): without adverse side effects
